Test results taken from patent US8901127B2, “Pyridazin derivatives as antagonists of the bradykinin B1 receptor” (Boehringer Ingelheim International GmbH, priority 2010, dated 2014).

Target: T1, cynomolgus BK1-receptor (Macaca fascicularis, UniProt Q3BCU0)
T1 construct: expressed in transfected cells; host or cells: CHO cells
T1 sequence (Q3BCU0 1-352): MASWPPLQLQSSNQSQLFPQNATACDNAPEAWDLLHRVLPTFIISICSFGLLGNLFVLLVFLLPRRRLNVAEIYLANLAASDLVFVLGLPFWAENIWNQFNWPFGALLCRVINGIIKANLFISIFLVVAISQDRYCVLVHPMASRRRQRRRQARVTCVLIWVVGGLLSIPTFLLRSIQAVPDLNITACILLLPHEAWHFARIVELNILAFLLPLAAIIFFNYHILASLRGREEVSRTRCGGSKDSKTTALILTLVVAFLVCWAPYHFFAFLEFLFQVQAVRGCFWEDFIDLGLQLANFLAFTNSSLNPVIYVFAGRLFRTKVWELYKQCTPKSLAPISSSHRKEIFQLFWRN
Experiment: cynoBK1 receptor binding assay
Conditions: homogenate of CHO cells expressing cynomolgus BK1-receptor; radioligand 0.5 to 5.0 nM kallidin (DesArg10,Leu9), [3,4-Prolyl-3,43H(N)]; ambient temperature
Protocol: Description of the Method of Binding the cynoBK1-Receptor
CHO cells that express the cynomolgus BK1-receptor are cultivated in “HAM'S F-12 Medium”. The medium is removed from confluent cultures, the cells are washed with PBS buffer, scraped off or detached using Versene and isolated by centrifuging. Then the cells are homogenised in suspension, the homogenate is centrifuged and resuspended. After the protein content has been determined 200 μl of the homogenate (50 to 250 μg protein/assay) are incubated for 60-180 minutes at ambient temperature with 0.5 to 5.0 nM kallidin (DesArg10,Leu9), [3,4-Prolyl-3,43H(N)] and increasing concentrations of the test substance in a total volume of 250 μl. The incubation is stopped by rapid filtration through GF/B glass fibre filters that have been pre-treated with polyethyleneimine (0.3%). The radioactivity bound to the protein is measured with a TopCount NXT. The radioactivity bound in the presence of 1.0 μM kallidin (DesArg10) is defined as non-specific binding. The concentration binding curve may be analysed using computer-aided non-linear curve fitting to determine the corresponding Ki values for the test substance.

O=C(N[C@@]1(C(=O)NCc2ncc(Nc3ccc(Cl)cc3C(F)(F)F)cc2F)CCOC1)c1cn[nH]c(=O)c1 [(5)]
Ki: 5.6 nM
